Assay results: patent publication US8362000B2, “Azetidinyl diamides as monoacylglycerol lipase inhibitors” (Janssen Pharmaceutica NV, priority 2009, dated 2013)
Numbering of substitutions follows the chain as printed. Read-outs that look alike come from different tables or passages of the source.

Tests used:
mutant MGL = molecular target: T1, mutant MGL (Homo sapiens, UniProt Q99685, L169S/L176S); test: MGL ThermoFluor assay - mutant; type: binding
T1 sequence (Q99685 1-303 L169S/L176S): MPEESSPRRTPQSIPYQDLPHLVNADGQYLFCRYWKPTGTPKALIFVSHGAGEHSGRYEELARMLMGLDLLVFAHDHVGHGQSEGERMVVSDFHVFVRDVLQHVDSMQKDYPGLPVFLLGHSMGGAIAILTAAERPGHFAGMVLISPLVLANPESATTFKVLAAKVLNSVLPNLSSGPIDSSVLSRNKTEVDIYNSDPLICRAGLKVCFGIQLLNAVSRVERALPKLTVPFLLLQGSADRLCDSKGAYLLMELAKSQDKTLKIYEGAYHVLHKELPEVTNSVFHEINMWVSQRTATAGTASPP

[1] = molecular target: T2, purified wild type MGL (wt-MGLL 6H-11-313) (Homo sapiens, UniProt Q99685)
T2 sequence (Q99685 1-303): T1 sequence (Q99685 1-303 L169S/L176S) with S169L, S176L

[2] = ThermoFluor, compound concentration measured by qNMR, read-out: MGL mutant ThermoFluor qKd (μM) (using qNMR conc.)
[3] = compound concentration measured by qNMR, read-out: MGL mutant ThermoFluor qKd (using qNMR conc.)
[4] = ThermoFluor concentration-response, read-out: MGL mutant ThermoFluor Kd
[5] = ThermoFluor thermal stability binding assay, read-out: MGL mutant ThermoFluor Kd

Row | IC50 [1] | Kd (mutant MGL; [4]) | SMILES | further results
1 | 200 nM | – | Cc1noc(C)c1-c1ccc2cc(C(=O)N3CC(N4CCN(C(=O)c5nccs5)CC4)C3)[nH]c2c1 [Cpd 1211] | Kd (mutant MGL; [2]): 0.106 µM
2 | 10 nM | – | O=C(c1ccc2c(cnn2CCc2ccc(F)cc2)c1)N1CC(N2CCN(C(=O)c3nccs3)CC2)C1 [Cpd 1049, 1-[2-(4-Fluorophenyl)ethyl]-5-({3-[4-(1,3-thiazol-2-ylcarbonyl)piperazin-1-yl]azetidin-1-yl}carbonyl)-1H-indazole] | Kd (mutant MGL; [3]): 0.05 µM
3 | < 5 nM | – | O=C(c1nccs1)N1CCN(C2CN(C(=O)c3ccc4c(ccn4-c4ccc(F)cc4)c3F)C2)CC1 [Cpd 1348, 4-Fluoro-1-(4-fluorophenyl)-5-({3-[4-(1,3-thiazol-2-ylcarbonyl)piperazin-1-yl]azetidin-1-yl}carbonyl)-1H-indole] | Kd (mutant MGL; [3]): 0.002 µM
4 | 540 nM | – | O=C(c1ccc2c(N3CCSCC3)ncnc2c1)N1CC(N2CCN(C(=O)c3nccs3)CC2)C1 [Cpd 951, 7-({3-[4-(1,3-Thiazol-2-ylcarbonyl)piperazin-1-yl]azetidin-1-yl}carbonyl)-4-thiomorpholin-4-ylquinazoline] | Kd (mutant MGL; [3]): 0.117 µM
5 | 1700 nM | 1.1 µM | O=C(c1ccc2[nH]c(C3CCCCC3)nc2c1)N1CC(N2CCN(C(=O)c3cscn3)CC2)C1 [Cpd 800] | –
6 | < 5 nM | – | O=C(c1cc[nH]c1)N1CCN(C2CN(C(=O)c3ccc(-c4cccc(C(F)(F)F)c4)cc3)C2)CC1 [Cpd 1324] | Kd (mutant MGL; [5]): 0.016 µM
7 | 9 nM | – | O=C(c1ccc2c(ccn2-c2ccc(F)cc2)c1)N1CC(N2CCN(C(=O)C(F)(F)F)CC2)C1 [Cpd 1079, 1-(4-Fluorophenyl)-5-({3-[4-(trifluoroacetyl)piperazin-1-yl]azetidin-1-yl}carbonyl)-1H-indole] | Kd (mutant MGL; ThermoFluor, compound concentration measured by qNMR, read-out: MGL mutant ThermoFluor qKd (using qNMR conc.)): 0.272 µM
8 | 8 nM | – | Cc1cc(C(=O)N2CC(N3CCN(C(=O)c4cscn4)CC3)C2)cc2ccn(-c3ccc(F)cc3)c12 [Cpd 1076] | Kd (mutant MGL; [3]): 0.02 µM
9 | 395 nM | 0.025 µM | Cn1c2ccccc2c2cc(C(=O)N3CC(N4CCN(C(=O)c5nccs5)CC4)C3)ccc21 [Cpd 750] | –
10 | > 16700 nM | – | Cc1c(C(=O)N2CC(N3CCN(C(=O)c4ccccc4)CC3)C2)oc2ccc(F)cc12 [Cpd 1490] | Kd (mutant MGL; [5]): > 31.2 µM
11 | 116 nM | – | O=C(c1nccs1)N1CCN(C2CN(C(=O)c3cccc4oc(-c5ccccc5F)nc34)C2)CC1 [Cpd 1193] | Kd (mutant MGL; [5]): 0.017 µM
12 | 42 nM | 0.008 µM | O=C(c1ccc2nc(-c3cccc(C(F)(F)F)c3)oc2c1)N1CC(N2CCN(C(=O)c3nccs3)CC2)C1 [Cpd 1158, 6-({3-[4-(1,3-Thiazol-2-ylcarbonyl)piperazin-1-yl]azetidin-1-yl}carbonyl)-2-[3-(trifluoromethyl)phenyl]-1,3-benzoxazole] | –
13 | 574 nM | 1.84 µM | O=C(c1ccc(CS(=O)(=O)c2cccc(C(F)(F)F)c2)cc1)N1CC(N2CCN(C(=O)c3nccs3)CC2)C1 [Cpd 976, 1-(1,3-Thiazol-2-ylcarbonyl)-4-(1-{[4-({[3-(trifluoromethyl)phenyl]sulfonyl}methyl)phenyl]carbonyl}azetidin-3-yl)piperazine] | –
14 | 295 nM | 1.42 µM | O=C(c1cccc(-c2cccc(F)c2)c1)N1CC(N2CCN(C(=O)c3cscn3)CC2)C1 [Cpd 1228] | –
15 | 31 nM | – | O=C(c1ccc(-c2cccc(C(F)(F)F)c2)cc1)N1CC(N2CCN(C(=O)c3ccon3)CC2)C1 [Cpd 1145] | Kd (mutant MGL; [2]): 0.061 µM
16 | 311 nM | 0.01 µM | Cn1cc(-c2cccc(C(F)(F)F)c2)c2ccc(C(=O)N3CC(N4CCN(C(=O)c5ccccc5)CC4)C3)cc21 [Cpd 593] | –
17 | 913 nM | – | Cc1nc2cc(C(=O)N3CC(N4CCN(C(=O)c5nccs5)CC4)C3)ccc2n1CCC(F)(F)F [Cpd 777] | Kd (mutant MGL; [3]): 0.048 µM
18 | 4170 nM | – | O=C(c1ccccc1)N1CCN(C2CN(C(=O)c3cccc4[nH]c(-c5ccccc5Cl)nc34)C2)CC1 [Cpd 608] | Kd (mutant MGL; [5]): 1.67 µM
19 | 13 nM | 0.002 µM | O=C(c1ccc2c(c1)CCN2Cc1ccccc1)N1CC(N2CCN(C(=O)c3nccs3)CC2)C1 [Cpd 994, 1-Benzyl-5-({3-[4-(1,3-thiazol-2-ylcarbonyl)piperazin-1-yl]azetidin-1-yl}carbonyl)-2,3-dihydro-1H-indole] | –
20 | 289 nM | 0.291 µM | O=C(c1ccc(S(=O)(=O)c2cccc(C(F)(F)F)c2)cc1)N1CC(N2CCN(C(=O)c3cscn3)CC2)C1 [Cpd 738] | –
21 | 255 nM | – | O=C(c1nccs1)N1CCN(C2CN(C(=O)c3cccc4oc(-c5ccc(Cl)cc5)nc34)C2)CC1 [Cpd 1220] | Kd (mutant MGL; [5]): 0.015 µM
22 | 16 nM | 0.054 µM | NC(=O)c1cc(-n2ccc3cc(C(=O)N4CC(N5CCN(C(=O)c6nccs6)CC5)C4)ccc32)ccc1F [Cpd 1418, 2-fluoro-5-[5-({3-[4-(1,3-thiazol-2-ylcarbonyl)piperazin-1-yl]azetidin-1-yl}carbonyl)-1H-indol-1-yl]benzamide] | –

The remaining lines, values behind:

Row | SMILES | IC50 [1] | Kd (mutant MGL; [4]) | further results
23 | COc1cncc(-c2ccc3cc(C(=O)N4CC(N5CCN(C(=O)c6nccs6)CC5)C4)[nH]c3c2)c1 [Cpd 1196] | 123 nM | – | Kd (mutant MGL; [2]): 0.37 µM
24 | O=C(c1cscn1)N1CC(N2CCN(C(=O)c3cc4cc(Cl)ccc4o3)CC2)C1 [Cpd 809] | 2100 nM | 0.769 µM | –
25 | O=C(c1ccc(-c2cccc(C(F)(F)F)c2)cc1)N1CCN(C2CN(C(=O)c3cc[nH]c3)C2)CC1 [Cpd 1243, 1-[1-(1H-Pyrrol-3-ylcarbonyl)azetidin-3-yl]-4-{[3′-(trifluoromethyl)biphenyl-4-yl]carbonyl}piperazine] | 463 nM | 0.033 µM | –
26 | O=C(c1ccc2nc(C(F)(F)F)cc(Cl)c2c1)N1CCN(C2CN(C(=O)c3nccs3)C2)CC1 [Cpd 842] | 5530 nM | 0.986 µM | –
27 | COc1ccc(C(C)(C)C)cc1C(=O)N1CC(N2CCN(C(=O)c3nccs3)CC2)C1 [Cpd 849] | 7010 nM | 2.7 µM | –
28 | O=C(Cn1ccc2cc(C(=O)N3CC(N4CCN(C(=O)c5nccs5)CC4)C3)ccc21)N1CCCC1 [Cpd 1035] | 4620 nM | – | Kd (mutant MGL; [3]): 1.01 µM
29 | COc1c(C(=O)N2CC(N3CCN(C(=O)c4nccs4)CC3)C2)sc2cc(C(F)(F)F)ccc12 [Cpd 649, 1-(1-{[3-Methoxy-6-(trifluoromethyl)-1-benzothiophen-2-yl]carbonyl}azetidin-3-yl)-4-(1,3-thiazol-2-ylcarbonyl)piperazine] | 6 nM | – | Kd (mutant MGL; [3]): 0.001 µM
30 | O=C(c1cscn1)N1CCN(C2CN(C(=O)c3cc4ccc(C(F)(F)F)nc4o3)C2)CC1 [Cpd 808] | 2080 nM | 62.5 µM | –
31 | O=C(CCCc1ccccc1)N1CC(N2CCN(C(=O)c3nccs3)CC2)C1 [Cpd 1434] | > 16700 nM | – | Kd (mutant MGL; [5]): 53.8 µM
32 | O=C(c1ccc(-n2cnc3ccccc32)cc1)N1CCN(C2CN(C(=O)c3cscn3)C2)CC1 [Cpd 1305] | 6680 nM | 0.833 µM | –
33 | O=C(c1ccccc1)N1CCN(C2CN(C(=O)c3cccc4[nH]c(-c5ccc(F)cc5)nc34)C2)CC1 [Cpd 602] | 1720 nM | – | Kd (mutant MGL; [5]): 0.5 µM
34 | O=C(c1ccc2c(c1)[nH]c(=O)n2-c1ccccc1)N1CC(N2CCN(C(=O)c3cscn3)CC2)C1 [Cpd 939] | 2360 nM | 0.302 µM | –
35 | O=C(c1cscn1)N1CCN(C2CN(C(=O)c3cccc(-c4ccccc4)c3F)C2)CC1 [Cpd 1240] | 459 nM | 2.49 µM | –
36 | O=C(c1nccs1)N1CCN(C2CN(C(=O)c3ccc4c(ccn4-c4ccc(F)cc4)c3Cl)C2)CC1 [Cpd 1414, 4-Chloro-1-(4-fluorophenyl)-5-({3-[4-(1,3-thiazol-2-ylcarbonyl)piperazin-1-yl]azetidin-1-yl}carbonyl)-1H-indole] | 11 nM | – | Kd (mutant MGL; [3]): 0.003 µM
37 | O=C(c1ccc2c(c1)[nH]c(=O)n2-c1ccc(C(F)(F)F)cc1)N1CC(N2CCN(C(=O)c3cscn3)CC2)C1 [Cpd 942] | 216 nM | 0.135 µM | –
38 | O=C(c1ccc(Oc2ncc(C(F)(F)F)cc2Cl)cc1)N1CC(N2CCN(C(=O)c3cscn3)CC2)C1 [Cpd 720] | 173 nM | 0.347 µM | –
39 | O=C(c1ccc(-n2cnc3ccccc32)cc1)N1CCN(C2CN(C(=O)c3nccs3)C2)CC1 [Cpd 1298] | 3850 nM | 0.474 µM | –
40 | O=C(c1ccccc1)N1CCN(C2CN(C(=O)c3ccc4c(cnn4-c4cccc(OC(F)(F)F)c4)c3)C2)CC1 [Cpd 576, 5-({3-[4-(Phenylcarbonyl)piperazin-1-yl]azetidin-1-yl}carbonyl)-1-[3-(trifluoromethoxy)phenyl]-1H-indazole] | 51 nM | – | Kd (mutant MGL; [2]): 0.088 µM
41 | O=C(c1ccc(Cc2cccc(C(F)(F)F)c2)cc1)N1CC(N2CCN(C(=O)c3nccs3)CC2)C1 [Cpd 995] | < 5 nM | 0.002 µM | –
42 | O=C(c1ccc(Oc2cccnc2)cc1)N1CC(N2CCN(C(=O)c3nccs3)CC2)C1 [Cpd 734] | 256 nM | 1.26 µM | –
43 | COc1cc(-n2ccc3cc(C(=O)N4CC(N5CCN(C(=O)c6ccccc6)CC5)C4)ccc32)ccc1C#N [Cpd 633] | 62 nM | – | Kd (mutant MGL; [5]): 0.157 µM
